Laboratory results taken from ChEMBL document CHEMBL1138438, “Structural-activity relationship study of highly-functionalized imidazolines as potent inhibitors of nuclear transcription factor-kappaB mediated IL-6 production” (Bioorg Med Chem, 2009).

Legend:
[1] = test system: HeLa; assay: Effect on cell cycle arrest in TNF-alpha-stimulated human HeLa cells transfected with NFkappaB-Luc assessed as cell aggregate level at 0.1 uM after 8 hrs by using propidium iodide staining by FACS analysis; type: functional
[2] = Cytotoxicity against IL-1-beta-stimulated human whole blood lymphocytes assessed as survival cell count in millions at 10 uM after 24 hrs by trypan blue staining-based hemocytometry
[3] = Cytotoxicity against human 184B5 cells after 24 hrs by MTS assay; type: cell-based
[4] = test system: HeLa; assay: Cell cycle arrest in TNF-alpha-stimulated human HeLa cells transfected with NFkappaB-Luc assessed as accumulation at diploid S phase at 10 uM after 8 hrs by using propidium iodide staining by FACS analysis; type: functional
[5] = test system: HeLa; assay: Effect on cell cycle arrest in TNF-alpha-stimulated human HeLa cells transfected with NFkappaB-Luc assessed as cell aggregate level at 0.5 uM after 8 hrs by using propidium iodide staining by FACS analysis; type: functional
[6] = Cytotoxicity against human whole blood lymphocytes assessed as survival cell count in millions at 1 uM after 24 hrs by trypan blue staining-based hemocytometry
[7] = test system: HeLa; assay: Cell cycle arrest in TNF-alpha-stimulated human HeLa cells transfected with NFkappaB-Luc assessed as accumulation at total S phase at 5 uM after 8 hrs by using propidium iodide staining by FACS analysis; type: functional
[8] = test system: HeLa; assay: Cell cycle arrest in TNF-alpha-stimulated human HeLa cells transfected with NFkappaB-Luc assessed as accumulation at diploid G2 phase at 0.5 uM after 8 hrs by using propidium iodide staining by FACS analysis; type: functional
[9] = test system: HeLa; assay: Cell cycle arrest in TNF-alpha-stimulated human HeLa cells transfected with NFkappaB-Luc assessed as accumulation at G2/G1 phase at 1 uM after 8 hrs by using propidium iodide staining by FACS analysis; type: functional
[10] = test system: HeLa; assay: Cell cycle arrest in TNF-alpha-stimulated human HeLa cells transfected with NFkappaB-Luc assessed as accumulation at diploid stage at 10 uM after 8 hrs by using propidium iodide staining by FACS analysis; type: functional
[11] = test system: HeLa; assay: Effect on cell cycle arrest in TNF-alpha-stimulated human HeLa cells transfected with NFkappaB-Luc assessed as cell aggregate level at 1 uM after 8 hrs by using propidium iodide staining by FACS analysis; type: functional
[12] = test system: HeLa; assay: Cell cycle arrest in TNF-alpha-stimulated human HeLa cells transfected with NFkappaB-Luc assessed as accumulation at diploid S phase at 5 uM after 8 hrs by using propidium iodide staining by FACS analysis; type: functional
[13] = test system: HeLa; assay: Cell cycle arrest in TNF-alpha-stimulated human HeLa cells transfected with NFkappaB-Luc assessed as accumulation at diploid G1 phase at 10 uM after 8 hrs by using propidium iodide staining by FACS analysis; type: functional
[14] = test system: HeLa; assay: Effect on cell cycle arrest in TNF-alpha-stimulated human HeLa cells transfected with NFkappaB-Luc assessed as cell aggregate level at 10 uM after 8 hrs by using propidium iodide staining by FACS analysis; type: functional
[15] = Cytotoxicity against human whole blood lymphocytes assessed as survival cell count in millions at 10 uM after 24 hrs by trypan blue staining-based hemocytometry
[16] = test system: Blood; assay: Antiinflammatory activity in human whole blood assessed as inhibition of IL-1-beta-stimulated IL6 production preincubated 2 hrs before IL1-beta challenge measured after 18 hrs by ELISA; type: functional, tissue-based
[17] = test system: HeLa; assay: Cell cycle arrest in TNF-alpha-stimulated human HeLa cells transfected with NFkappaB-Luc assessed as accumulation at diploid G1 phase at 1 uM after 8 hrs by using propidium iodide staining by FACS analysis; type: functional
[18] = test system: HeLa; assay: Cell cycle arrest in TNF-alpha-stimulated human HeLa cells transfected with NFkappaB-Luc assessed as accumulation at diploid stage at 0.1 uM after 8 hrs by using propidium iodide staining by FACS analysis; type: functional
[19] = test system: HeLa; assay: Effect on cell cycle arrest in TNF-alpha-stimulated human HeLa cells transfected with NFkappaB-Luc assessed as cell debris level at 0.05 uM after 8 hrs by using propidium iodide staining by FACS analysis; type: functional
[20] = test system: HeLa; assay: Cell cycle arrest in TNF-alpha-stimulated human HeLa cells transfected with NFkappaB-Luc assessed as accumulation at total S phase at 0.5 uM after 8 hrs by using propidium iodide staining by FACS analysis; type: functional
[21] = Cytotoxicity against human whole blood lymphocytes assessed as survival cell count in millions at 3 uM after 24 hrs by trypan blue staining-based hemocytometry
[22] = Cytotoxicity against human whole blood lymphocytes assessed as survival cell count in millions at 20 uM after 24 hrs by trypan blue staining-based hemocytometry
[23] = Cytotoxicity against IL-1-beta-stimulated human whole blood lymphocytes assessed as survival cell count in millions at 1 uM after 24 hrs by trypan blue staining-based hemocytometry
[24] = test system: HeLa; assay: Cell cycle arrest in TNF-alpha-stimulated human HeLa cells transfected with NFkappaB-Luc assessed as accumulation at G2/G1 phase at 0.5 uM after 8 hrs by using propidium iodide staining by FACS analysis; type: functional
[25] = test system: HeLa; assay: Effect on cell cycle arrest in TNF-alpha-stimulated human HeLa cells transfected with NFkappaB-Luc assessed as total background cell aggregate and debris level at 1 uM after 8 hrs by using propidium iodide staining by FACS analysis; type: functional
[26] = test system: HeLa; assay: Cell cycle arrest in TNF-alpha-stimulated human HeLa cells transfected with NFkappaB-Luc assessed as accumulation at diploid G1 phase at 0.5 uM after 8 hrs by using propidium iodide staining by FACS analysis; type: functional
[27] = test system: HeLa; assay: Cell cycle arrest in TNF-alpha-stimulated human HeLa cells transfected with NFkappaB-Luc assessed as accumulation at diploid stage at 1 uM after 8 hrs by using propidium iodide staining by FACS analysis; type: functional
[28] = test system: HeLa; assay: Cell cycle arrest in human HeLa cells transfected with NFkappaB-Luc assessed as accumulation at G2/G1 phase at 20 uM after 8 hrs by using propidium iodide staining by FACS analysis; type: functional
[29] = test system: HeLa; assay: Cell cycle arrest in TNF-alpha-stimulated human HeLa cells transfected with NFkappaB-Luc assessed as accumulation at G2/G1 phase at 20 uM after 8 hrs by using propidium iodide staining by FACS analysis; type: functional
[30] = test system: HeLa; assay: Effect on cell cycle arrest in TNF-alpha-stimulated human HeLa cells transfected with NFkappaB-Luc assessed as total background cell aggregate and debris level at 0.05 uM after 8 hrs by using propidium iodide staining by FACS analysis; type: functional
[31] = test system: HeLa; assay: Effect on cell cycle arrest in TNF-alpha-stimulated human HeLa cells transfected with NFkappaB-Luc assessed as cell aggregate level at 5 uM after 8 hrs by using propidium iodide staining by FACS analysis; type: functional
[32] = test system: HeLa; assay: Cell cycle arrest in TNF-alpha-stimulated human HeLa cells transfected with NFkappaB-Luc assessed as accumulation at diploid stage at 0.05 uM after 8 hrs by using propidium iodide staining by FACS analysis; type: functional
[33] = test system: HeLa; assay: Cell cycle arrest in TNF-alpha-stimulated human HeLa cells transfected with NFkappaB-Luc assessed as accumulation at diploid stage at 20 uM after 8 hrs by using propidium iodide staining by FACS analysis; type: functional

- IC50 ([16]; read-out: IC50): 800 nM
- IC50 ([16]; read-out: Log IC50 (converted)): 794 nM
Compound: CCOC(=O)[C@]1(c2ccccc2)N=C(c2ccccc2)N(Cc2ccccc2)[C@@H]1c1ccccc1 (racemic)
- Activity [1]: 0%
- Activity [2]: 0.92 mL⁻¹
- CC50 at 24 h [3]: > 10000 nM
- Activity [4]: 16.8%
- Activity [5]: 0%
- Activity [6]: 0.8 mL⁻¹
- Activity [7]: 19.8%
- Activity [8]: 13.4%
- Activity [9]: 1.91%
- Activity [10]: 100%
- Activity [11]: 0%
- Activity [12]: 19.8%
- Activity [13]: 68.19%
- Activity [14]: 0%
- Activity [15]: 1.04 mL⁻¹
- Activity [16]: Dose-dependent effect
- Activity [17]: 63.22%
- Activity [18]: 100%
- Activity [19]: 2.47%
- Activity [20]: 22.52%
- Activity [21]: 0.86 mL⁻¹
- Activity [22]: 1.02 mL⁻¹
- Activity [23]: 1.18 mL⁻¹
- Activity [24]: 1.91%
- Activity [25]: 1.87%
- Activity [26]: 64.08%
- Activity [27]: 100%
- Activity [28]: 1.9%
- Activity [29]: 1.9%
- Activity [30]: 1.06%
- Activity [31]: 0%
- Activity [32]: 100%
- Activity [33]: 100%
